Values belong to the compound of their own block, whether it stands above or below them. Bridge positions count the residues as written; N and C are the ends. Square brackets hold non-standard residues; d marks the D form. Triazole bridges read from a SMILES are 1,4-linked. Ends that are not written are not given here. Peptide text beside a SMILES is read from it. * marks the point of attachment. Biotin = O=C1N[C@H]2[C@H](CS[C@H]2CCCCC(=O)*)N1; Lys(N3) = [N-]=[N+]=NCCCC[C@H](N)C(=O)O; Pra = C#CC[C@H](N)C(=O)O; AEA = NCCOCC(=O)O
What was measured:
[1] = molecular target: His-tagged CD8α human recombinant protein (Homo sapiens, UniProt P01732); test: CD8 ELISA (affinity assay) of biligands to determine cooperativity; assay type: binding; set-up: purchased Origene TP760215; details: biotinylated biligand immobilized on NeutrAvidin plate; CD8α titrated 200 to 0 nM; read-out: EC50 against CD8
Chain of His-tagged CD8α human recombinant protein (P01732 22-235): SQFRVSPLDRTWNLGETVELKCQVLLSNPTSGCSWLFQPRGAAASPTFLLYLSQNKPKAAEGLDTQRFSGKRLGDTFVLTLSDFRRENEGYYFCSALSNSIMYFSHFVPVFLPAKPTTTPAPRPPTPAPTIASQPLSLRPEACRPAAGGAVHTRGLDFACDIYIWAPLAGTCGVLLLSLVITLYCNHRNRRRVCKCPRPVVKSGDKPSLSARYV
Procedure: CD8 ELISA (Affinity assay). […] The plate was then blocked with 2 μM Biotin for 15 min.
This predicts that an optimized linker to covalently join two PCC macrocycles will have a length near 28.2 Å. In FIG. 17 that prediction is validated by testing polyethylene glycol (PEG) linkers of varying lengths. […] This represents a >30-fold improvement in affinity relative to the individual PCC macrocyclic ligands. Shorter or longer linkers yield biligand affinities that, while improved over either of the PCC macrocycles, are about ˜10-fold below that of the optimal linker.

[2] = In vivo PET imaging, PK and biodistribution in normal mice; details: normal mouse, intravenous via tail vein, 50-100 μCi
Procedure: In vivo PK of the radiolabeled macrocycle anchors and biligands was visualized and quantitatively determined by PET imaging in normal (healthy) mice. Radiolabeled peptides were formulated in PBS pH 7.4 containing <10% EtOH. 50-100 μCi of radiolabeled peptide was administered intravenously via the tail vein of each mouse. Dynamic (0-1 hour) and static PET imaging was performed to quantify initial peptide biodistribution, time to clear the initial concentration sites, and final excretion route. A CT scan was subsequently acquired for anatomical reference. Imaging was performed on GENISYS8 and Inveon microPET-CT small animal scanners.

[3] = system: human PBMCs; test: Cellular binding assay of CD8 biligand by flow cytometry; assay type: cell-based; details: human PBMCs co-stained with CD3-APC mAb; biligand 5 μM
Procedure: Cryopreserved human peripheral blood mononuclear cells (PBMCs) from Zen-Bio (1 donor; #SER-PBMC-F) were thawed using Lymphocyte Medium (#LYMPH-1, Zen-Bio) following the vendor's protocol. Cells were then resuspended in FACS buffer (1× Dulbecco's Phosphate-Buffered Saline+2% Fetal Bovine Serum+2 mM EDTA).
Protocol: A total of 1×10^6 human PBMCs in 50 μL of FACs buffer was incubated with 0.5 μL of Alexa Fluor 488-labeled biligand Cy(HGRGH) (SEQ ID NO: 21)-PEG5-Cy(AKYRG) (SEQ ID NO: 8) (final concentration: 5 μM), 2 μL of human CD3-APC mAb (clone: BW264/56) (#130-098-156, MACS Miltenyi Biotec), and 2.5 μL of 7-AAD Viability Staining Solution (#00-6993, eBioscience) at room temperature for 30 min. […] Data were obtained and analyzed with FACSCalibur and FACSDiva v8.0.1 (BD Biosciences), respectively.
Flow cytometry was used to evaluate biligand detection of cellular CD8. […] Samples were then washed and analyzed for green (CD8; FITC-A) and red (CD3; APC-A) fluorescence. […] The cell populations in Q2 (10.9%) and Q4 (11.6%) were detected by the biligand as CD8+ and are consistent with the % CD8+ cells reported by the vendor. […] The cell populations detected by the CD8-FITC mAb were 11.2% in Q2 and 2.1% in Q4.

EC50 [1]: 0.058 nM
Compound: C[C@H](O)[C@H]1NC(=O)[C@@H](Cc2c[nH]cn2)NC(=O)CNC(=O)[C@@H](N)CCCCn2cc(nn2)C[C@@H](C(=O)N[C@@H](CCCCNC(=O)CCCC[C@@H]2SC[C@@H]3NC(=O)N[C@@H]32)C(=O)NCCOCC(=O)N[C@H]2CCCCn3cc(nn3)C[C@@H](C(N)=O)NC(=O)[C@@H](Cc3c[nH]cn3)NC(=O)CNC(=O)[C@@H](CCCNC(=N)N)NC(=O)CNC(=O)[C@@H](Cc3c[nH]cn3)NC2=O)NC(=O)[C@H]2CCCN2C(=O)[C@@H](Cc2c[nH]c3ccccc23)NC1=O [Cy(Ghtwp)-Lys (Biotin)-PEG1-Cy(hGrGh)] (H-[Lys(N3)]G[dH][dT][dW][dP][Pra]K(Biotin)[AEA][Lys(N3)][dH]G[dR]G[dH][Pra]-NH2; triazole 1-7, 10-16)

Compound: O=Cc1ccc([18F])cc1 [[^18F]FB, 4-[^18F]fluorobenzaldehyde]
biodistribution and clearance route by PET (in words) [2]: rapid kidney uptake and clearance, then near exclusive bladder occupancy by 30 minutes

Compound: Alexa Fluor 488-labeled biligand Cy(HGRGH)-PEG5-Cy(AKYRG): biligand Cy(HGRGH)-PEG5-Cy(AKYRG) resynthesized with an Alexa Fluor 488 label (not fully specified (bridges); also: PEG5 linker joins the two macrocycles, Alexa Fluor 488 label, site not given here)
cell population in Q2 detected as CD8+ [3]: 10.9%
cell population in Q4 detected as CD8+ [3]: 11.6%

— patent publication US12594350B2, “CD8-specific capture agents, compositions, and methods of using and making” (Regeneron Pharmaceuticals, Inc., priority 2016, dated 2026)
